The source of these data is patent US5986131A, “RXR selective ligands” (Hoffmann-La Roche Inc., priority 1997, dated 1999).

In one experiment the test system is human sebaceous cells. In words: Antiproliferative activity on human sebocytes in vitro. The following applies: Homo sapiens; for IC50: 240 h, first passage cells, 10 days of exposure, read-out: Inhibition of human sebaceous cell proliferation in vitro IC50. In kind it is cell-based. The procedure:
Sebaceous cells were isolated from adult human sebaceous glands by a combination of enzymatic and mechanical methods (Doran et al., 1991). The cells were cultured in Iscove's medium containing 10% fetal calf serum and 4 μg/ml dexamethasone on a layer of growth-arrested 3T3 mouse fibroblasts. Cells were plated in medium without the test compound and then given test compound in fresh medium 24-48 hours after the initial plating. The cultures were given fresh medium, containing the test compound, every 48 hours. On the day of harvesting, the cultures were rinsed with 0.03% EDTA in PBS, to remove only the 3T3 fibroblasts. followed by incubation in 0.05% trypsin/0.03% EDTA. The cells were suspended, mixed vigorously to prepare a single cell suspension and counted in a hemocytometer.
Stock solutions of compounds were made up as 10^-2 M solutions in 100% DMSO and stored at -20° C. in the dark. Compounds in solution were brought to room temperature and used by diluting directly into complete medium to the appropriate concentration.
The compounds of Example 12, Example 2, and Example 4 were tested for their effects on inhibiting the proliferation of first passage human sebaceous cells in vitro after 10 days of exposure to drug.

In the next experiment the test system is Rhino mouse utricles. Kind of experiment: Rhino mouse utricle reduction activity. Type of experiment: in vivo, Rhino mice. The following applies: topical; for Utricle Size: 3 weeks; for Utricle size % Change from Control: ns = not statistically significant, others p<0.05. The procedure: Compounds were dissolved in 100% acetone and stored at 4° C. for the duration of the experiment under nitrogen. […] One day after the last dose, the mice were sacrificed by CO2 inhalation. […] The epidermis was then separated from the dermis.
The samples were kept in each of the above solutions for 2 hours. The skin samples were removed from the xylene and mounted on glass microscope slides. Image analysis, using the Ultimage image analysis software, was used to determine the mean diameter and area of utricles. Approximately 5 fields per sample were examined, for an average of 150 utricles per mouse measured.

The next experiment has as its target T1, RXRα (Homo sapiens, UniProt P19793).
T1 sequence (P19793 1-462): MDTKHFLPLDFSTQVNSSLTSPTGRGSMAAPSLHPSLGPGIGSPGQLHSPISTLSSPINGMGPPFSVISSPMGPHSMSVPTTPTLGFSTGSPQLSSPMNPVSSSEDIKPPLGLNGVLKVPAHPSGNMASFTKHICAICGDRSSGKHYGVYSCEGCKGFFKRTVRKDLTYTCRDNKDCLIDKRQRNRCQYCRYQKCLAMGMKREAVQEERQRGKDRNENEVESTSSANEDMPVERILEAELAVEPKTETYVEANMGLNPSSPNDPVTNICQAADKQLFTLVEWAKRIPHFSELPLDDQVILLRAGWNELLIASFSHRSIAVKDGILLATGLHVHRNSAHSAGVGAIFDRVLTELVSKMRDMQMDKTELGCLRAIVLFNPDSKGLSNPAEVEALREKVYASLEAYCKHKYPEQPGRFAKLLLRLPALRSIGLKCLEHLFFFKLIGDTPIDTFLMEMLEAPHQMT
Kind of experiment: RXRα activation (transactivation). Type of experiment: cell-based. The following applies: Table 1; read-out: Activation ED50, RXRα. An excerpt:
Methods essentially as described in those publications were used to determine the binding and transactivation properties of retinoids reported in the Examples herein.

The next experiment concerns HL-60 cells. In words: HL-60 differentiation (NBT reduction). Particulars: in combination with RARα retinoid. In kind it is cell-based, human. The procedure: Under the influence of retinoids, HL-60 cells (a human myeloid leukemia cell line) differentiate into granulocytes. This differentiation of HL-60 cells into granulocytes is mediated by RARα, and so provides the basis for the use of retinoids to treat leukemia.
Retinoid-induced differentiation of HL-60 cells was assayed by measuring their oxidative burst potential via the reduction of NBT (Nitroblueterstazolium) [Pick et al., J. Reticuloendothelial Soc., 30:581-593 (1981)].
HL-60 cells were maintained in RPMI 1640 medium supplemented with 10% FCS, 2mM L-glutamine, ImM sodium pyruvate, 1% non-essential amino acids, 50 U/ml penicillin and 50 μg/ml streptomycin (=RPMI/FCS).
30,000 cells/[…] of RPMI/FCS were seeded into flat-bottomed microtiter wells. 10 μl of retinoids diluted in complete medium were added at the same time to yield final concentrations betweeen 10^-11 and 10^-6 M (stock solutions of 10^-2 M in ethanol were kep at -20° C. and protected from light). After 3 days, the medium was removed with a multichannel pipette and replaced with 100 μl of NBT solution (1 mg/ml in PBS with 200 nM phorbol myristate acetate (PMA). Following an additional hour incubation at 37° C. the NBT solution was removed and 100 μl of 10% SDS in 0.01 N HCl was added. The amount of the reduced NBT was quantified photometrically at 540 nm using an automated plate reader. The mean of 3 wells was calculated. S.E.M. were between 5 and 10%.

Another experiment has as its system mouse B cell. Kind of experiment: Inhibition of LPS-induced mouse B cell proliferation (3H-thymidine incorporation). In kind it is cell-based. The method, then:
Single cell suspensions of mouse spleen were set up in culture in flatbottomed 96 well Microtiter trays, 0.2 ml/well of a 2×10^5 /ml cell suspension in IMDM supplemented with 10% foetal calf serum, HEPES, antibiotics and 50 μM 2-mercaptoethanol. The specific B cell mitogen E. coli lipopolysaccharide (DIFCO) (LPS) was added at 50μg/ml. Cultures were incubated at 37° C. in a humidified atmosphere and 5% CO2.
The retinoids to be tested were first titrated in triplicate from 10 nM to 10 μM and left throughout the whole culture period. […] Cyclosporin A (Sandoz AG) was used as a reference compound (from 1 nM to 1 μM).
The cultures were then harvested on glass fiber filters and the radioactivity imcorporated into DNA measured in a β-liquid scintillation counter (Betaplate, Wallac Oy, Turku, Finland).
The results are expressed as % of the response of untreated cultures. […] Retinoids were added to the cultures at the beginning of the culture period.

The subject of experiment [1] is retinoic acid X receptors ("RXR"). Particulars: cited from earlier work.
Experiment [2] deals with nuclear retinoic acid receptors ("RAR"). Particulars: cited from earlier work.
Experiment [3] has as its system Hamster Ear Sebaceous Gland. In words: Effect on size of sebaceous glands of Golden Syrian hamsters. The following applies: 4 weeks topical dosing. Set-up: Sebaceous Gland Size: unit not given here. Type of experiment: in vivo. The procedure: Charles River Golden Syrian male hamsters were given the desired dose in acetone. The compounds were stored at 4° C. protected from light. Fresh solutions were made up weekly.
Hamsters were dosed daily for five days, rested for two days, and dosed again for five days until 20 doses were given. The volume of solution was 50 microliters per ear.
Hamsters were sacrificed by CO2 inhalation, and the ears removed for histological evaluation. One ear was removed and the ventral surface separated from the rest of the ear. A 2 mm punch was removed 5 mm from the tip of the ear and stained in 0.1 % Sudan Black B dissolved in 100% propylene glycol overnight. After destaining, the size of sebaceous glands was quantified with a Donsanto Image Analysis System.
Data are given as the average area of 80-120 sebaceous glands per dose, as percent of the control (solvent-treated) sections.

By inhibition is commonly meant the change of the read-out against control, counted positive when it falls.

Turning to `CC1=C(/C=C/C(C)=C(Cl)\C=C\C(C)=C\C(=O)O)C(C)(C)CCC1` [Example 12, (All-E-)-6-chloro-3,7-dimethyl-9-(2,6,6-trimethyl-1-cyclohexen-1-yl)-2,4,6,8-nonatetraenoic acid], the IC50 in the experiment on human sebaceous cells amounted to 100 nM. Further, the “Utricle Size” value in the experiment with Rhino mouse utricles (0.1 μg/day) is 9104 ± 829 μm^2 / utricle; in the experiment with Rhino mouse utricles (1 μg/day), 9156 ± 938 μm^2 / utricle; in the experiment with Rhino mouse utricles (10 μg/day) it was 7634 ± 485 μm^2 / utricle; in the experiment with Rhino mouse utricles (100 μg/day), 3596 ± 300 μm^2 / utricle. In addition, the “Utricle size % Change from Control” value in the experiment with Rhino mouse utricles (0.1 μg/day) is -7%; in the experiment on Rhino mouse utricles (1 μg/day), -6%; with Rhino mouse utricles (10 μg/day), -22%; in the experiment on Rhino mouse utricles (100 μg/day), -63%.
For the molecule `CC1(C)CCC(C)(C)c2cc(C(=O)Nc3ccc(C(=O)O)cc3)ccc21` [Compound A, reference compound], the EC50 on RXRα is above 10000 nM. In the experiment with HL-60 cells, the “potentiation of HL-60 differentiation (in words)” value is reported as “somewhat more pronounced”.
`CC1=C(/C=C/C(C)=C/C=C/C(C)=C/C(=O)O)C(C)(C)CCC1` [All-trans retinoic acid, all-trans retinoic acid, reference compound]: in the experiment with mouse B cell (Mus musculus, B-cell, 96 h, day 4, 10 nM, read-out: inhibition of B cell response), the inhibition at 0.01 µM is around 30%. The molecule further yielded an IC50 in the experiment with mouse B cell (alone, FIG. 4, day 3) of 1 nM. In addition, the “effect on B cell response” value with mouse B cell (day 4, 1 nM) was “not inhibitory any longer and actually induces a minor enhancement of the response”. Also, the “binding to RXR (in words)” value in experiment [1] is recorded as “do not”. For the same molecule, the “binding to RAR (in words)” value in experiment [2] was “bind to RARα”.
On to `CC1=C(/C=C/C(C)=C\C=C\C(C)=C\C(=O)O)C(C)(C)CCC1` [9-cis-retinoic acid, reference compound], for which the IC50 with human sebaceous cells came out at 100 nM. In addition, the “Utricle Size” value in the experiment on Rhino mouse utricles (0.1 μg/day) came to 8650 ± 427 μm^2 / utricle; in the experiment with Rhino mouse utricles (1 μg/day), 6926 ± 497 μm^2 / utricle; with Rhino mouse utricles (10 μg/day), 3540 ± 354 μm^2 / utricle; in the experiment on Rhino mouse utricles (100 μg/day), 2644 ± 312 μm^2 / utricle. The “Utricle size % Change from Control” value in the experiment on Rhino mouse utricles (0.1 μg/day) is on record as -11%; in the experiment on Rhino mouse utricles (1 μg/day), -29%; in the experiment on Rhino mouse utricles (10 μg/day) it was -64%; in the experiment on Rhino mouse utricles (100 μg/day), -73%. The “binding to RXR (in words)” value in experiment [1] was “binds to a group of receptors known as the retinoic acid X receptors”. In addition, the “binding to RAR (in words)” value in experiment [2] was “also acts as a ligand for the RAR group of receptors”.
For the molecule `CC1=C(/C=C/C(C)=C/C=C/C(C)=C\C(=O)O)C(C)(C)CCC1` [13-cis-retinoic acid, reference compound], in the experiment with human sebaceous cells, the IC50 amounted to 100 nM. Further, the “Utricle Size” value in the experiment with Rhino mouse utricles (0.1 μg/day) stood at 9187 ± 794 μm^2 / utricle; in the experiment with Rhino mouse utricles (1 μg/day), 6400 ± 424 μm^2 / utricle; in the experiment with Rhino mouse utricles (10 μg/day), 3793 ± 368 μm^2 / utricle; in the experiment on Rhino mouse utricles (100 μg/day), 3132 ± 305 μm^2 / utricle. For the same molecule, the “Utricle size % Change from Control” value with Rhino mouse utricles (0.1 μg/day) was -6%; in the experiment with Rhino mouse utricles (1 μg/day) it was -34%; in the experiment on Rhino mouse utricles (10 μg/day), -61%; in the experiment with Rhino mouse utricles (100 μg/day), -68%. The “Sebaceous Gland Size” value in experiment [3] (1 μg/day) was found to be 14029 ± 2977; in experiment [3] (10 μg/day), 12965 ± 2029; in experiment [3] (100 μg/day), 10459 ± 1302. Also, the “Sebaceous gland size % Change from Control” value in experiment [3] (1 μg/day, ns = not statistically significant) is listed as -15%; in experiment [3] (10 μg/day, ns = not statistically significant), -21%; in experiment [3] (100 μg/day) it was -37%. The “binding to RXR (in words)” value in experiment [1] is listed as “do not”. For the same molecule, in experiment [2], the “binding to RAR (in words)” value is on record as “bind to RARα”.
For `CC1=C(/C=C/C(C)=C(Br)\C=C\C(C)=C\C(=O)O)C(C)(C)CCC1` [Example 2, (All-E)-6-Bromo-3,7-dimethyl-9-(2,6,6-trimethyl-1-cyclohexen-1-yl)-2,4,6,8-nonatetraenoic acid], in the experiment with human sebaceous cells (1000 nM, first experiment, read-out: inhibition of sebaceous cell growth), the inhibition at 1 µM is 70%. Also, the “Utricle Size” value in the experiment on Rhino mouse utricles (0.1 μg/day) worked out at 9535 ± 890 μm^2 / utricle; in the experiment on Rhino mouse utricles (1 μg/day), 9616 ± 1134 μm^2 / utricle; in the experiment with Rhino mouse utricles (10 μg/day), 9049 ± 891 μm^2 / utricle; with Rhino mouse utricles (100 μg/day), 5437 ± 615 μm^2 / utricle. The “Utricle size % Change from Control” value in the experiment with Rhino mouse utricles (0.1 μg/day) is -2%; in the experiment on Rhino mouse utricles (1 μg/day), -1%; in the experiment with Rhino mouse utricles (10 μg/day), -7%; with Rhino mouse utricles (100 μg/day) it was -44%.
